Measured values as given in patent US20080125432A1 (Devgen NV, priority 2004, published 2008).
Read-outs that look alike come from different tables or passages of the source.

Columns and labels:
[1] = tested on: C. elegans wild-type strain N2; assay: Same C. elegans pumping assay format using wild-type strain N2; assay type: in vivo; details: read-out: EC50 (μM) Wild type worm N2
From the text: The screening of the compounds according to the present invention has been performed in the C. elegans based high-throughput screen for Kv4.3 modulators described above. The method for testing the activity on human Kv4.3 of the compounds according to the invention with C. elegans strains expressing human Kv4.3 for their activity is the same as the method described in WO 03/097682. The method for testing the compounds on wild-type C. elegans strains not expressing human Kv4.3 is the same as the method described in WO 00/63427. Briefly, UG1755 animals have been grown in large numbers and staged young adults (no or only few eggs inside the uterus) have been harvested on the day of screening. Approximately 125 animals in 80 μl buffer have been dispensed per well of a “U shaped 96-well compound plate The compound plate contained already compound material at a final concentration of 30 μM in 0.3% DMSO. After one hour incubation 10 μl of the fluorescent label Calcein AM (CAM) have been added to achieve a final concentration of 5 μM CAM and 0.8% DMSO. After another four hours of incubation at 20° C., the drinking of C. elegans animals (or the “reaction 8 measured by the uptake of CAM) has been stopped by adding 10 μl of a 60 μM ivermectin solution. The fluorescence intensity (counts per second) has been measured 40 minutes after adding ivermectin with the Wallac plate reader at a wavelength of 535 nm (after excitation at 485 nm).
These compounds have been also tested in the same assay format using a C. elegans wild-type strain N2 and the corresponding EC50 has been calculated. The ratio of the EC50s obtained for a compound on the two strains (transgenic expressing human Kv4.3 and wild-type) gives an indication on whether said compound is acting on human Kv4.3. […]

Kv1.5 potassium channel = molecular target: T1, Kv1.5 potassium channel (Homo sapiens, UniProt P22460); assay: Patch clamp, CHO cells stably expressing the Kv1.5 potassium channel; assay type: cell-based; details: Kv1.5 mediated current
T1 construct: expressed in transfected cells
T1 sequence (P22460 whole entry): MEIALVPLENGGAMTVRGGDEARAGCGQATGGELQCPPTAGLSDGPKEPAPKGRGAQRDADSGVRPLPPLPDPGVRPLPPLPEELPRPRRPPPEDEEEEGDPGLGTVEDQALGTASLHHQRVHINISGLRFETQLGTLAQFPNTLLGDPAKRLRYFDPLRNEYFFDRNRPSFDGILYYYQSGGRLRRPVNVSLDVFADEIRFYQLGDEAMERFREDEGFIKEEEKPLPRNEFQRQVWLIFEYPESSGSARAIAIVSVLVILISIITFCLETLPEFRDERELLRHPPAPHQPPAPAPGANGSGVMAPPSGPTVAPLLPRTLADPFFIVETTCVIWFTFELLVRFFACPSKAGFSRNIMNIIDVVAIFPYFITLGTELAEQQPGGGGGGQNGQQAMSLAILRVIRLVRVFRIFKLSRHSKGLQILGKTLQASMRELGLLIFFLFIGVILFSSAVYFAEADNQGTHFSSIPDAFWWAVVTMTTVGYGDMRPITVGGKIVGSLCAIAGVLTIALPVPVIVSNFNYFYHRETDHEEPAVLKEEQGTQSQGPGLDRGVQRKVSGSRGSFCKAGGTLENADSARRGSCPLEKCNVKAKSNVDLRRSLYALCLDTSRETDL
Description: The cDNA coding for Kv1.5 (GenBank Acc. No. M55513) was cloned into the pcDNA6-vector (Invitrogen, Leek, Netherlands). A C-terminal epitope-tag was introduced via PCR. The plasmid was sequenced and subsequently introduced into cells. Clonal cell lines stably expressing the Kv1.5 channel were established. Expression of protein was analyzed by means of immunofluorescence using antibodies directed against the epitope-tag. The functional expression of the ion channels was validated electrophysiologically.
The experiments were performed using CHO cells stably expressing the Kv1.5 potassium channel.
From a HP of −60 mV cells were hyperpolarised for 100 ms to […], followed by a 500 ms depolarisation to +50 mV. The current amplitude at the end of the test pulse to +50 mV was used for the analysis. Pulse cycling rate was 10 s (0.1 Hz).
The application protocol of test compounds is depicted in FIG. 7. The first 14 stimuli were required to achieve steady state of the current amplitude. Unspecific current reduction was calculated and served for correcting procedures during data analysis. After the 14th stimulus the test compound application was started (indicated by an arrow) via teflon and silicone tubings and was assumed to reach the cell after 6 additional stimuli. The perfusion is adjusted by using a defined drop rate of 10 drops per 10-12 s. Up to three concentrations were applied successively to one cell followed by a wash period of 5 minutes. Total number of stimuli was 140. Effect of the test compound was analysed between stimulus nos. 21 and 50 (5 min., long dashed line) for the first concentration, between stimulus nos. 51 and 80 (5 min., short dashed line) for an additional 5 minutes. If the cell was still stable, a wash was added afterwards. Start of test compound application at the given concentration is indicated by arrows. Number of stimuli of each single episode are shown in the protocol of FIG. 7.
The effects of the compounds were investigated at one concentration (2 μM or 1 μM) on the Kv1.5-mediated potassium channel. For comparison, the vehicle control experiments on the Kv1.5 mediated potassium channel. Results are presented in 9Table 9

[2] = 2 μM, fraction, cell also prints %

Structure (SMILES): Cc1nc(Nc2ccc(F)cc2)sc1C(=O)N[C@H](C)c1ccc2ccccc2c1 [Compound 16, 2-(4-fluoro-phenylamino)-4-methyl-thiazole-5-carboxylic acid (R)-1-(naphthalen-2-yl)ethyl amide]
- EC50 ([1]; Caenorhabditis elegans): > 60 µM

Structure (SMILES): Cc1nc(Nc2ccc3occc3c2)sc1C(=O)N[C@H]1CCC[C@@H]1OCc1ccccc1 [Compound 126, 2-(benzofuran-5-ylamino)-4-methyl-thiazole-5-carboxylic acid ((1S,2S)-2-benzyloxycyclopent-1-yl) amide]
- Relative remaining current (mean after 8-10 min) (Kv1.5 potassium channel; 1 μM): 86%

Structure (SMILES): COc1ccccc1Nc1ccc(C(=O)N[C@H]2CCC[C@@H]2OCc2ccccc2)s1 [Compound 75, 2-(2-methoxy-phenylamino)-thiophene-5-carboxylic acid ((1S,2S)-2-benzyloxycyclopent-1-yl) amide]
- Relative remaining current (mean after 8-10 min) (Kv1.5 potassium channel; 1 μM): 77%

Structure (SMILES): Cc1nc(Nc2cccc3cccnc23)sc1C(=O)N[C@H]1CCC[C@@H]1OCc1ccccc1 [Compound 94, 4-methyl-2-(quinolin-8-ylamino)-thiazole-5-carboxylic acid ((1S,2S)-2-benzyloxycyclopent-1-yl) amide]
- Relative remaining current (mean after 8-10 min) (Kv1.5 potassium channel; 1 μM): 79%

Structure (SMILES): COc1ccccc1Nc1nc(C)c(C(=O)N[C@H]2CCC[C@@H]2OCc2ccccc2)s1 [Compound 68, 2-(2-methoxy-phenylamino)-4-methyl-thiazole-5-carboxylic acid (1S,2S)-2-(benzyloxycyclopent-1-yl) amide]
- Relative remaining current (mean after 8-10 min) (Kv1.5 potassium channel; [2]): 0.51 (51%)
- Relative remaining current (mean after 5 min) (Kv1.5 potassium channel; [2]): 0.66 (66%)

Structure (SMILES): Cc1nc(Sc2ccccc2)sc1C(=O)N[C@H]1CCC[C@@H]1OCc1ccccc1 [Compound 81, 4-methyl-2-phenylsulfanyl-thiazole-5-carboxylic acid ((1S,2S)-2-benzyloxycyclopent-1-yl) amide]
- Relative remaining current (mean after 8-10 min) (Kv1.5 potassium channel; 1 μM): 44%

Structure (SMILES): Cc1nc(Nc2ccc(Br)cc2)sc1C(=O)N[C@@H](C)c1ccc2ccccc2c1 [Compound 18, 2-(4-bromo-phenylamino)-4-methyl-thiazole-5-carboxylic acid (S)-1-(naphthalen-2-yl)ethyl amide]
- EC50 ([1]; Caenorhabditis elegans): 33 µM

Structure (SMILES): Cc1nc(Nc2ccc(Cl)cc2)sc1C(=O)N[C@@H]1CCC[C@H]1OCc1ccccc1 [Compound 30, 2-(4-chloro-phenylamino)-4-methyl-thiazole-5-carboxylic acid (1R,2R)-2-(benzyloxycyclopent-1-yl) amide]
- EC50 [1]: > 60 µM

Structure (SMILES): Cc1nc(Nc2ccc(Br)cc2)sc1C(=O)N[C@H](C)c1ccc2ccccc2c1 [Compound 19, 2-(4-bromo-phenylamino)-4-methyl-thiazole-5-carboxylic acid (R)-1-(naphthalen-2-yl)ethyl amide]
- EC50 ([1]; Caenorhabditis elegans): 33 µM
